Test results reported in patent publication US20120003156A1, “METHODS FOR TREATING NEOPLASIA BY INHIBITING LACTATE DEHYDROGENASE AND/OR NICOTINAMIDE PHOSPHORIBOSYLTRANSFERASE” (The Johns Hopkins University, priority 2008, published 2012).
Entries after “also recorded” stand apart in the source; their conditions may differ.

Columns and labels:
[1] = system: P198 human pancreatic cancer cells; assay: Cell population growth; type: cell-based; details: 1% O2 vs normoxia
Method: P493 human lymphoma B cells were maintained in RPMI 1640 with 10% fetal bovine serum (FBS) and 1% penicillin-streptomycin. P198 human pancreatic cancer cells; RCC4, RCC4-VHL human renal carcinoma cells; MCF-7 and MDA-MB-453 breast cancer cells were maintained in high glucose (4.5 mg/ml) DMEM with 10% FBS and 1% penicillin-streptomycin. Non-hypoxic cells (20% O2) were maintained at 37° C. in a 5% CO2, 95% in an air incubator. Hypoxic cells (1% O2) were maintained in a controlled atmosphere chamber (PLAS-LABS, Lansing, Mich.) with a gas mixture containing 1% O2, 5% CO2, and 94% N2 at 37° C. for the indicated time. Bright live cells were counted daily in a hemacytometer using trypan blue dye to exclude dead cells. All cells were grown at a concentration of 10^5 cells/ml. All drugs treatment began at day 0.
siRNAs targeting human LDHA (ON-TARGETplus SMARTpool) were purchased from Dharmacon Research Inc. Targeting sequences for LDHA were a pool of the following four target sequences: sequence 1, […]; sequence 2, […]; sequence 3, […]; sequence 4, […]. Accordingly, one of skill in the art would recognize the siRNA sequences corresponding to these targets. For P493 human lymphoma B cells, transfection of siRNAs was performed using an Amaxa Nucleotransfection device according to the manufacturer's instructions. […]

[2] = system: human glioblastoma U-87-MG cells; assay: Cell growth; type: cell-based
P493 cells [3] = assay: Mitochondrial membrane potential by JC-1 flow cytometry; type: cell-based, human; details: 9 μM FX11 or/and FK866, 24 hours
Description: The lipophilic cation dye (5,5′,6,6′-tetrachloro-1,1′,3,3′-tetraethylbenzimidazolcarbocyanine iodide, JC-1) (Invitrogen) was used to detect the loss of the mitochondrial membrane potential. The negative charge established by the intact mitochondrial membrane potential lets the lipophilic dye stain the mitochondria bright red which emits in channel 2 (FL2). When the mitochondrial membrane potential collapses, JC-1 remains in the cytoplasm in a green fluorescent monomeric emission in channel 1 (FL1). JC-1 reversibly changes its color from green to orange as membrane potentials increase (over values of 80-100 mV). 10^5 cells/ml were treated with 9 μM FX11 or/and FK866 for 24 hours. Stained cells were analyzed in FACScan flow cytometers (BD Bioscience).

LDH = LDH (Homo sapiens, UniProt P00338); assay: LDH activity, decrease in absorbance at 340 nm of NADH; type: biochemical
Method: In other studies, pyruvate and NADH were used as the substrates to test the inhibition of LDH by FX11. […] To further document the selective binding of FX11 versus E to LDHA, affinity chromatography was performed with P493 cell lysate using FX11 or E immobilized on Sepharose beads. […] GAPDH is another pivotal glycolytic enzyme that converts NAD^+ to NADH. The question of whether FX11 could inhibit its NAD^+-dependent conversion of glyceraldehyde-3-phosphate to bis-phosphoglycerate was addressed.

[4] = Solubility in aqueous solution; type: physicochemical; details: relative to the 42 μg dose
Method: Although the renewed interest in the Warburg effect is accompanied by a greater understanding of its molecular underpinnings, targeting it for therapeutic purposes has become a major challenge. […] Of note, primary human lymphomas have been documented to have elevated LDHA expression particularly in hypoxic regions. […] A desired FX11 dose of 42 μg for daily intraperitoneal (IP) injection was calculated. An initial serum level of ˜100 μM was expected, assuming a uniform and immediate distribution in the vascular system without accounting for the drug half-life or drug metabolism.

[5] = system: human pancreatic cell line E3LZ10.7; assay: Cell growth; type: cell-based
LDHA = LDHA (Homo sapiens, UniProt P00338); details: cited from earlier work
c-Myc = assay: Western blot of c-Myc; type: cell-based, human; details: 30 μM FX11, 24 hours
P493 cells [6] = assay: Annexin V / 7-AAD cell death assay; type: cell-based, human; details: 24 hours of FX11 treatment
P493 cells [7] = assay: Oxygen consumption, Clark-type oxygen electrode; type: cell-based, human; details: FX11 treatment
Method: Oxygen consumption was measured using a Clark-type oxygen electrode (Oxytherm System, Hansatech Instruments Ltd). 5×10^6 cells in 1 ml medium were placed in the chamber above a membrane which is permeable to oxygen. Oxygen diffuses through the membrane and is reduced at the cathode surface so that a current flows through the circuit which is completed by a thin layer of KCl solution. The current which is generated bears a direct, stoichiometric relationship to the oxygen reduced, and is converted to a digital signal. Determinations were done in triplicate, and the entire experiment was done twice.

[8] = system: P198 human pancreatic cancer xenografts; assay: Human P198 pancreatic cancer xenograft; type: in vivo, athymic nu mice; details: treatment from 200 mm^3; daily IP 42 μg FX11; compared with E
Method: (§1) The animal studies were performed according to the protocols approved by the Animal Care and Use Committee at Johns Hopkins University. In order to generate tumorigenesis study in xenograft model, 2.0×10^7 P493 human lymphoma B cells or 5×10^6 human pancreatic cancer cells were injected subcutaneously into male SCID mice (NCI) or athymic Hsd: RH-Foxn1nu mice (Harlan), respectively, as previously described (Feldmann et al., 2007; Gao et al., 2009; Gao et al., 2007). When the tumor volume reached 200 mm^3, groups of 5 mice were injected with control 2% DMSO or 42 μg FX11 and/or 100 μg FK866. The tumor volumes were measured using a digital caliper after 4, 7 and 10 days of treatment. Tumor volumes were calculated using the following formula: [length (mm)×width (mm)×width (mm)×0.52]. The entire experiment was repeated seven times.

[9] = system: P493 human lymphoma B cells; assay: Human P493 B cell lymphoma xenograft; type: in vivo, SCID mice
Method: as §1

SMILES: CCCc1c(O)c(O)c(C(=O)O)c2cc(Cc3ccccc3)c(C)cc12 [FX11, 2,3-dihydroxy-6-methyl-7-(phenylmethyl)-4-propylnaphthalene-1-carboxylic acid]
- effect of hypoxia on inhibition of P198 cells by FX11 [1]: sensitized
- growth inhibition [2]: dose-dependent manner
- mitochondrial membrane potential (P493 cells [3]): decreased
- slope of decrease in absorbance at 340 nm (LDH; 6 μM FX11, −0.084 without FX11): −0.029
- LDH activity (LDH; 6 μM, pyruvate and NADH as substrates): completely abrogated
- concentration inhibiting LDH activity in the conversion of lactate to pyruvate (LDH; lactate to pyruvate direction): 34 µM
- solubility limit in aqueous solution [4]: dose could only be doubled before the limit of FX11 in aqueous solution was reached
- growth inhibition [5]: dose-dependent manner
- selectivity LDHA versus LDHB or pLDH (LDHA): preferentially inhibited LDHA as opposed to LDHB or pLDH
- c-Myc levels (c-Myc): does not affect c-Myc levels
- cell death (7-AAD and annexin V labeling) (P493 cells [6]): increased
- oxygen consumption (P493 cells [7]): increased oxygen consumption
- tumor growth of P198 pancreatic tumor xenografts [8]: significant response; also recorded: effectively inhibited
- tumor growth of palpable P493 xenografts ([9]; daily IP, 42 μg FX11 or 0.8 mg doxycycline, vs vehicle 2% DMSO): remarkable inhibition of tumor growth
- tumor growth of established P493 lymphoma xenografts ([9]; treatment from 200 mm^3, daily IP 42 μg FX11 and/or 100 μg FK866, ten days): cytostatic, but significant effect; also recorded: effectively inhibited
